These results are taken from patent publication US8846669B2, “Oxazolidinone derivative and medical composition containing same” (Legochem Biosciences, Inc., priority 2011, dated 2014).

Values after ≈ are worked out from the molar mass of the structure shown. Where two headings read alike, the source gives them in different places.

Holding throughout (test): In vitro antibacterial activity, broth microdilution MIC90
Assay type in all cases: cell-based
On the technique in general: Broth dilution looks for growth in wells or tubes with falling amounts of substance.

For test [1], the system named is Methicillin Resistant Staphylococcus aureus. The method, boiled down:
(§1)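 Antibacterial testing used the CLSI M7-A5 dilution method for aerobic bacteria across twelve strains, including resistant staphylococcal and enterococcal isolates. Final drug levels of 0.063 μg/mL up to 128 μg/mL were tested; linezolid was included for comparison.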

Test [2] relates to Vancomycin Resistant Enterococcus faecalis. The method, boiled down: as §1
Test [3] relates to Linezolid and Vancomycin Resistant Enterococcus faecalis. The method, boiled down: as §1
The test system of a further test is Enterococcus faecalis. The method, boiled down:
as §1

Another test deals with Staphylococcus aureus. The method, boiled down: as §1
In test [4] the test system is Vancomycin Resistant Enterococcus faecium. The method, boiled down:
as §1

For test [5], the system named is Methicillin Resistant Staphylococcus epidermidis. The method, boiled down:
as §1

Test [6] deals with Linezolid and Vancomycin Resistant Enterococcus faecium (strain 10). The method, boiled down: as §1
In test [7] the test system is Staphylococcus epidermidis. The method, boiled down: as §1
Another test relates to Moraxella catarrhalis. The method, boiled down:
as §1

Test [8] concerns Linezolid and Vancomycin Resistant Enterococcus faecium (strain 11). The method, boiled down:
as §1

Another test concerns Enterococcus faecium. The method, boiled down:
as §1

Where [9] appears, read: Staphylococcus aureus, strain 2, S. aureus MR, read-out: MIC90.
[10] abbreviates: Enterococcus faecalis, strain 6, E. faecalis VanA, read-out: MIC90.
[11] abbreviates: Enterococcus faecalis, strain 7, E. faecalis VanA LR, read-out: MIC90.
Where [12] appears, read: Enterococcus faecalis, strain 5, E. faecalis, read-out: MIC90.
[13] abbreviates: Staphylococcus aureus, strain 1, S. aureus, read-out: MIC90.
Where [14] appears, read: Enterococcus faecium, strain 9, E. faecium VanA, read-out: MIC90.
The mark [15] stands for this setting: Staphylococcus epidermidis, strain 4, S. epidermidis MR, read-out: MIC90.
[16] abbreviates: Enterococcus faecium, strain 10, E. faecium VanA LR, read-out: MIC90.
[17] abbreviates: Staphylococcus epidermidis, strain 3, S. epidermidis, read-out: MIC90.
[18] abbreviates: Moraxella catarrhalis, strain 12, M. catarrhalis, read-out: MIC90.
The mark [19] stands for this setting: Enterococcus faecium, strain 11, E. faecium VanA LR, read-out: MIC90.
The mark [20] stands for this setting: Enterococcus faecium, strain 8, E. faecium, read-out: MIC90.

As usually defined, the MIC90 is an inhibitory concentration at the 90% level, which refers to growth in some studies and to a panel of isolates in others.

As to `O=C1O[C@@H](Cn2ccnn2)CN1c1ccc(-c2ccc(C3=NOCCN3)nc2)c(F)c1` [Compound 66], the MIC90 came out at 0.5 mg/L (≈ 1.18 µM) in test [1] (setting [9]); 0.25 mg/L (≈ 0.59 µM) in [2] (setting [10]); 1 mg/L (≈ 2.36 µM) in test [3] (setting [11]); 0.25 mg/L (≈ 0.59 µM) with Enterococcus faecalis (setting [12]); 0.125 mg/L (≈ 0.295 µM) with Staphylococcus aureus (setting [13]); 0.25 mg/L (≈ 0.59 µM) in test [4] (setting [14]). In addition, the MIC90 in test [5] (setting [15]) turned out to be 0.5 mg/L (≈ 1.18 µM); in [6] (setting [16]), 1 mg/L (≈ 2.36 µM); in test [7] (setting [17]), 0.25 mg/L (≈ 0.59 µM); in the test on Moraxella catarrhalis (setting [18]) it was 1 mg/L (≈ 2.36 µM); in test [8] (setting [19]), 2 mg/L (≈ 4.72 µM); with Enterococcus faecium (setting [20]), 0.125 mg/L (≈ 0.295 µM).
With `O=C(CO)N1CCN(c2ccc(-c3ccc(N4C[C@H](CNc5ccon5)OC4=O)cc3F)cn2)C=N1` [Compound 41], the MIC90 was determined as 0.25 mg/L (≈ 0.505 µM) in [1] (strain 2, S. aureus MR); 1 mg/L (≈ 2.02 µM) in [2] (strain 6, E. faecalis VanA); 2 mg/L (≈ 4.04 µM) in [3] (strain 7, E. faecalis VanA LR); 0.5 mg/L (≈ 1.01 µM) in the test on Enterococcus faecalis (strain 5, E. faecalis); 0.25 mg/L (≈ 0.505 µM) in the test on Staphylococcus aureus (strain 1, S. aureus); 0.5 mg/L (≈ 1.01 µM) in test [4] (strain 9, E. faecium VanA). The MIC90 in test [5] (strain 4, S. epidermidis MR) was 2 mg/L (≈ 4.04 µM); in test [6] (strain 10, E. faecium VanA LR), 4 mg/L (≈ 8.07 µM); in test [7] (strain 3, S. epidermidis), 0.5 mg/L (≈ 1.01 µM); against Moraxella catarrhalis (strain 12, M. catarrhalis), 2 mg/L (≈ 4.04 µM); in [8] (strain 11, E. faecium VanA LR) it was 4 mg/L (≈ 8.07 µM); with Enterococcus faecium (strain 8, E. faecium), 0.125 mg/L (≈ 0.252 µM).
`CC(=O)NC[C@H]1CN(c2ccc(-c3ccc(N4C=NOCC4)nc3)c(F)c2)C(=O)O1` [Compound 57]: the MIC90 in test [1] (setting [9]) turned out to be 0.5 mg/L (≈ 1.21 µM); in [2] (setting [10]), 0.25 mg/L (≈ 0.605 µM); in test [3] (setting [11]), 1 mg/L (≈ 2.42 µM); with Enterococcus faecalis (setting [12]), 0.25 mg/L (≈ 0.605 µM); in the test with Staphylococcus aureus (setting [13]), 0.25 mg/L (≈ 0.605 µM); in test [4] (setting [14]), 0.125 mg/L (≈ 0.302 µM). The MIC90 in test [5] (setting [15]) was found to be 0.5 mg/L (≈ 1.21 µM); in test [6] (setting [16]), 1 mg/L (≈ 2.42 µM); in test [7] (setting [17]), 0.25 mg/L (≈ 0.605 µM); in the test on Moraxella catarrhalis (setting [18]), 2 mg/L (≈ 4.84 µM); in [8] (setting [19]) it was 2 mg/L (≈ 4.84 µM); in the test on Enterococcus faecium (setting [20]), 0.125 mg/L (≈ 0.302 µM).
As to `CC(=O)NC[C@H]1CN(c2ccc(-c3ccc(N4CCN(C=O)C=N4)nc3)c(F)c2)C(=O)O1` [Compound 52], the MIC90 in test [1] (setting [9]) is 0.5 mg/L (≈ 1.14 µM); in test [2] (setting [10]), 0.5 mg/L (≈ 1.14 µM); in [3] (setting [11]), 1 mg/L (≈ 2.27 µM); with Enterococcus faecalis (setting [12]) it was 0.5 mg/L (≈ 1.14 µM); in the test on Staphylococcus aureus (setting [13]) it was 0.25 mg/L (≈ 0.568 µM); in test [4] (setting [14]), 0.5 mg/L (≈ 1.14 µM). Also, the MIC90 is 0.5 mg/L (≈ 1.14 µM) in test [5] (setting [15]); 1 mg/L (≈ 2.27 µM) in test [6] (setting [16]); 0.25 mg/L (≈ 0.568 µM) in test [7] (setting [17]); 4 mg/L (≈ 9.08 µM) with Moraxella catarrhalis (setting [18]); 1 mg/L (≈ 2.27 µM) in test [8] (setting [19]); 0.5 mg/L (≈ 1.14 µM) in the test with Enterococcus faecium (setting [20]).
Regarding `CN1CCN(c2ccc(-c3ccc(N4C[C@H](COc5ccon5)OC4=O)cc3F)cn2)C=N1` [Compound 45], the MIC90 in test [1] (strain 2, S. aureus MR) is 1 mg/L (≈ 2.21 µM); in test [2] (strain 6, E. faecalis VanA), 4 mg/L (≈ 8.84 µM); in test [3] (strain 7, E. faecalis VanA LR), more than 128 mg/L; in the test with Enterococcus faecalis (strain 5, E. faecalis), 2 mg/L (≈ 4.42 µM); with Staphylococcus aureus (strain 1, S. aureus) it was 0.5 mg/L (≈ 1.11 µM); in [4] (strain 9, E. faecium VanA) it was 2 mg/L (≈ 4.42 µM). Besides, the MIC90 in test [5] (strain 4, S. epidermidis MR) was 4 mg/L (≈ 8.84 µM); in test [6] (strain 10, E. faecium VanA LR) it was more than 128 mg/L; in test [7] (strain 3, S. epidermidis), 1 mg/L (≈ 2.21 µM); against Moraxella catarrhalis (strain 12, M. catarrhalis), more than 128 mg/L; in [8] (strain 11, E. faecium VanA LR), more than 128 mg/L; in the test on Enterococcus faecium (strain 8, E. faecium), 0.5 mg/L (≈ 1.11 µM).
In the case of `COC(=O)NC[C@H]1CN(c2ccc(-c3ccc(N4C=NN(C(N)=O)CC4)nc3)c(F)c2)C(=O)O1` [Compound 26], the MIC90 in test [1] (Staphylococcus aureus) is 1 mg/L (≈ 2.12 µM); in test [2] (Enterococcus faecalis) it was 0.5 mg/L (≈ 1.06 µM); in test [3] (Enterococcus faecalis) it was 4 mg/L (≈ 8.48 µM); against Enterococcus faecalis (Enterococcus faecalis), 0.5 mg/L (≈ 1.06 µM); with Staphylococcus aureus (Staphylococcus aureus), 0.25 mg/L (≈ 0.53 µM); in test [4] (Enterococcus faecium) it was 0.5 mg/L (≈ 1.06 µM). The MIC90 turned out to be 1 mg/L (≈ 2.12 µM) in test [5] (Staphylococcus epidermidis); 4 mg/L (≈ 8.48 µM) in [6] (Enterococcus faecium); 0.5 mg/L (≈ 1.06 µM) in test [7] (Staphylococcus epidermidis); 4 mg/L (≈ 8.48 µM) in the test on Moraxella catarrhalis (Moraxella catarrhalis); 2 mg/L (≈ 4.24 µM) in [8] (Enterococcus faecium); 0.25 mg/L (≈ 0.53 µM) in the test on Enterococcus faecium (Enterococcus faecium).
As for `CC(=O)NC[C@H]1CN(c2ccc(-c3ccc(N4CCON=C4C)nc3)c(F)c2)C(=O)O1` [Compound 62], the MIC90 in test [1] (setting [9]) amounted to 2 mg/L (≈ 4.68 µM); in test [2] (setting [10]) it was 1 mg/L (≈ 2.34 µM); in test [3] (setting [11]) it was 4 mg/L (≈ 9.36 µM); with Enterococcus faecalis (setting [12]), 1 mg/L (≈ 2.34 µM); with Staphylococcus aureus (setting [13]) it was 0.5 mg/L (≈ 1.17 µM); in test [4] (setting [14]), 1 mg/L (≈ 2.34 µM). The MIC90 in test [5] (setting [15]) amounted to 4 mg/L (≈ 9.36 µM); in test [6] (setting [16]), 8 mg/L (≈ 18.7 µM); in test [7] (setting [17]) it was 0.5 mg/L (≈ 1.17 µM); in the test with Moraxella catarrhalis (setting [18]), 4 mg/L (≈ 9.36 µM); in test [8] (setting [19]), 4 mg/L (≈ 9.36 µM); in the test on Enterococcus faecium (setting [20]), 0.5 mg/L (≈ 1.17 µM).
